Results as given in patent US10695337B2, “Piperidin-4-yl azetidine derivatives as JAK1 inhibitors” (Incyte Corporation, priority 2010, dated 2020).

Biological target: human JAK1 (a.a. 837-1142)
Assay: In vitro JAK kinase assay (HTRF, phosphorylation of a biotinylated peptide), JAK1
Format: biochemical
Details: measured at 1 mM ATP; JAK2 IC50 / JAK1 IC50
Procedure, shortened: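 N-terminally His-tagged catalytic domains, baculovirus-expressed in insect cells and purified, were used as enzyme. Reactions ran 1 hr at room temperature and were stopped with a mix of 45 mM EDTA, 300 nM SA-APC and 6 nM Eu-Py20. The HTRF signal was read after 40 min of antibody binding.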

SMILES | IC50 Ratio JAK2/JAK1
N#CCC1(n2ccc(-c3ncnc4[nH]ccc34)c2)CN(C2CCN(C(=O)c3ccc(C(F)(F)F)cc3F)CC2)C1 [Example 272, {1-{1-[2-fluoro-4-(trifluoromethyl)benzoyl]piperidin-4-yl}-3-[3-(7H-pyrrolo[2,3-d]pyrimidin-4-yl)-1H-pyrrol-1-yl]azetidin-3-yl}acetonitrile] | 6.5
N#CCC1(n2ccc(-c3ncnc4[nH]ccc34)c2)CN(C2CCN(C(=O)c3cc(C(F)(F)F)ccc3F)CC2)C1 [Example 273, {1-{1-[2-fluoro-5-(trifluoromethyl)benzoyl]piperidin-4-yl}-3-[3-(7H-pyrrolo[2,3-d]pyrimidin-4-yl)-1H-pyrrol-1-yl]azetidin-3-yl}acetonitrile] | 4.4
N#CCC1(n2ccc(-c3ncnc4[nH]ccc34)c2)CN(C2CCN(C(=O)c3cc(F)cc(C(F)(F)F)c3)CC2)C1 [Example 274, {1-{1-[3-fluoro-5-(trifluoromethyl)benzoyl]piperidin-4-yl}-3-[3-(7H-pyrrolo[2,3-d]pyrimidin-4-yl)-1H-pyrrol-1-yl]azetidin-3-yl}acetonitrile] | 9.0
N#CCC1(n2ccc(-c3ncnc4[nH]ccc34)c2)CN(C2CCN(C(=O)c3ccc(F)c(C(F)(F)F)c3)CC2)C1 [Example 275, {1-{1-[4-fluoro-3-(trifluoromethyl)benzoyl]piperidin-4-yl}-3-[3-(7H-pyrrolo[2,3-d]pyrimidin-4-yl)-1H-pyrrol-1-yl]azetidin-3-yl}acetonitrile] | 3.1
N#CCC1(n2ccc(-c3ncnc4[nH]ccc34)c2)CN(C2CCN(C(=O)c3cccc(F)c3F)CC2)C1 [Example 276, {1-[1-(2,3-difluorobenzoyl)piperidin-4-yl]-3-[3-(7H-pyrrolo[2,3-d]pyrimidin-4-yl)-1H-pyrrol-1-yl]azetidin-3-yl}acetonitrile] | 4.0
N#CCC1(n2ccc(-c3ncnc4[nH]ccc34)c2)CN(C2CCN(C(=O)c3ccc(F)c(F)c3)CC2)C1 [Example 277, {1-[1-(3,4-difluorobenzoyl)piperidin-4-yl]-3-[3-(7H-pyrrolo[2,3-d]pyrimidin-4-yl)-1H-pyrrol-1-yl]azetidin-3-yl}acetonitrile] | 9.8
N#CCC1(n2ccc(-c3ncnc4[nH]ccc34)c2)CN(C2CCN(C(=O)c3cc(F)ccc3F)CC2)C1 [Example 278, {1-[1-(2,5-difluorobenzoyl)piperidin-4-yl]-3-[3-(7H-pyrrolo[2,3-d]pyrimidin-4-yl)-1H-pyrrol-1-yl]azetidin-3-yl}acetonitrile] | 5.6
N#CCC1(n2ccc(-c3ncnc4[nH]ccc34)c2)CN(C2CCN(C(=O)c3c(F)cccc3F)CC2)C1 [Example 279, {1-[1-(2,6-difluorobenzoyl)piperidin-4-yl]-3-[3-(7H-pyrrolo[2,3-d]pyrimidin-4-yl)-1H-pyrrol-1-yl]azetidin-3-yl}acetonitrile] | 4.1
N#CCC1(n2ccc(-c3ncnc4[nH]ccc34)c2)CN(C2CCN(C(=O)c3ccc(F)c(F)c3F)CC2)C1 [Example 280, {3-[3-(7H-pyrrolo[2,3-d]pyrimidin-4-yl)-1H-pyrrol-1-yl]-1-[1-(2,3,4-trifluorobenzoyl)piperidin-4-yl]azetidin-3-yl}acetonitrile] | 7.5
N#CCC1(n2ccc(-c3ncnc4[nH]ccc34)c2)CN(C2CCN(C(=O)c3cccc(OC(F)(F)F)c3F)CC2)C1 [Example 281, {1-{1-[2-fluoro-3-(trifluoromethoxy)benzoyl]piperidin-4-yl}-3-[3-(7H-pyrrolo[2,3-d]pyrimidin-4-yl)-1H-pyrrol-1-yl]azetidin-3-yl}acetonitrile] | 10.0
N#CCC1(n2ccc(-c3ncnc4[nH]ccc34)c2)CN(C2CCN(C(=O)c3ccc(O)c(C(F)(F)F)c3)CC2)C1 [Example 282, {1-{1-[4-hydroxy-3-(trifluoromethyl)benzoyl]piperidin-4-yl}-3-[3-(7H-pyrrolo[2,3-d]pyrimidin-4-yl)-1H-pyrrol-1-yl]azetidin-3-yl}acetonitrile] | 3.4
COc1ncccc1NC(=O)N1CCC(N2CC(CC#N)(n3ccc(-c4ncnc5[nH]ccc45)c3)C2)CC1 [Example 284, 4-{3-(cyanomethyl)-3-[3-(7H-pyrrolo[2,3-d]pyrimidin-4-yl)-1H-pyrrol-1-yl]azetidin-1-yl}-N-(2-methoxypyridin-3-yl)piperidine-1-carboxamide] | 5.8
Cc1nc(C(F)(F)F)ccc1NC(=O)N1CCC(N2CC(CC#N)(n3ccc(-c4ncnc5[nH]ccc45)c3)C2)CC1 [Example 285, 4-{3-(cyanomethyl)-3-[3-(7H-pyrrolo[2,3-d]pyrimidin-4-yl)-1H-pyrrol-1-yl]azetidin-1-yl}-N-[2-methyl-6-(trifluoromethyl)pyridin-3-yl]piperidine-1-carboxamide] | 5.7
N#CCC1(n2ccc(-c3ncnc4[nH]ccc34)c2)CN(C2CCN(C(=O)Nc3ccccc3C#N)CC2)C1 [Example 287, 4-{3-(cyanomethyl)-3-[3-(7H-pyrrolo[2,3-d]pyrimidin-4-yl)-1H-pyrrol-1-yl]azetidin-1-yl}-N-(2-cyanophenyl)piperidine-1-carboxamide] | 6.7
COc1ccccc1NC(=O)N1CCC(N2CC(CC#N)(n3ccc(-c4ncnc5[nH]ccc45)c3)C2)CC1 [Example 288, 4-{3-(cyanomethyl)-3-[3-(7H-pyrrolo[2,3-d]pyrimidin-4-yl)-1H-pyrrol-1-yl]azetidin-1-yl}-N-(2-methoxyphenyl)piperidine-1-carboxamide] | 9.0
N#CCC1(n2ccc(-c3ncnc4[nH]ccc34)c2)CN(C2CCN(C(=O)Nc3ncccc3C(F)(F)F)CC2)C1 [Example 290, 4-{3-(cyanomethyl)-3-[3-(7H-pyrrolo[2,3-d]pyrimidin-4-yl)-1H-pyrrol-1-yl]azetidin-1-yl}-N-[3-(trifluoromethyl)pyridin-2-yl]piperidine-1-carboxamide] | 3.9
N#CCC1(n2ccc(-c3ncnc4[nH]ccc34)c2)CN(C2CCN(C(=O)Nc3ncccc3F)CC2)C1 [Example 292, 4-{3-(cyanomethyl)-3-[3-(7H-pyrrolo[2,3-d]pyrimidin-4-yl)-1H-pyrrol-1-yl]azetidin-1-yl}-N-(3-fluoropyridin-2-yl)piperidine-1-carboxamide] | 9.1
N#CCC1(n2ccc(-c3ncnc4[nH]ccc34)c2)CN(C2CCN(C(=O)Nc3ccc(Cl)cc3C#N)CC2)C1 [Example 293, 4-{3-(cyanomethyl)-3-[3-(7H-pyrrolo[2,3-d]pyrimidin-4-yl)-1H-pyrrol-1-yl]azetidin-1-yl}-N-(4-chloro-2-cyanophenyl)piperidine-1-carboxamide] | 3.4
N#CCC1(n2cc(-c3ccnc4[nH]ccc34)cn2)CN(C2CCN(C(=O)c3ccc(C#N)cc3F)CC2)C1 [Example 295, 4-[(4-{3-(cyanomethyl)-3-[4-(1H-pyrrolo[2,3-b]pyridin-4-yl)-1H-pyrazol-1-yl]azetidin-1-yl}piperidin-1-yl)cabonyl]-3-fluorobenzonitrile] | 5.1
N#CCC1(n2cc(-c3ccnc4[nH]ccc34)cn2)CN(C2CCN(C(=O)c3ccc(O)c(F)c3)CC2)C1 [Example 296] | 4.6
N#CCC1(n2cc(-c3ccnc4[nH]ccc34)cn2)CN(C2CCN(C(=O)c3ccc(O)cc3F)CC2)C1 [Example 297, {1-[1-(2-fluoro-4-hydroxybenzoyl)piperidin-4-yl]-3-[4-(1H-pyrrolo[2,3-b]pyridin-4-yl)-1H-pyrazol-1-yl]azetidin-3-yl}acetonitrile] | 10.0
N#CCC1(n2cc(-c3ccnc4[nH]ccc34)cn2)CN(C2CCN(C(=O)c3cc(C(F)(F)F)ncc3Cl)CC2)C1 [Example 298, {1-{1-[5-chloro-2-(trifluoromethyl)isonicotinoyl]piperidin-4-yl}-3-[4-(1H-pyrrolo[2,3-b]pyridin-4-yl)-1H-pyrazol-1-yl]azetidin-3-yl}acetonitrile] | 2.8
N#CCC1(n2cc(-c3ccnc4[nH]ccc34)cn2)CN(C2CCN(C(=O)c3ccnc(C(F)(F)F)n3)CC2)C1 [Example 299, [3-[4-(1H-pyrrolo[2,3-b]pyridin-4-yl)-1H-pyrazol-1-yl]-1-(1-{[2-(trifluoromethyl)pyrimidin-4-yl]carbonyl}piperidin-4-yl)azetidin-3-yl]acetonitrile] | 6.6
N#CCC1(n2cc(-c3ccnc4[nH]ccc34)cn2)CN(C2CCN(C(=O)c3cnc(C(F)(F)F)cn3)CC2)C1 [Example 301, [3-[4-(1H-pyrrolo[2,3-b]pyridin-4-yl)-1H-pyrazol-1-yl]-1-(1-{[5-(trifluoromethyl)pyrazin-2-yl]carbonyl}piperidin-4-yl)azetidin-3-yl]acetonitrile] | 3.3
N#CCC1(n2cc(-c3ccnc4[nH]ccc34)cn2)CN(C2CCN(C(=O)C3CCC(F)(F)CC3)CC2)C1 [Example 302, {1-{1-[(4,4-difluorocyclohexyl)carbonyl]piperidin-4-yl}-3-[4-(1H-pyrrolo[2,3-b]pyridin-4-yl)-1H-pyrazol-1-yl]azetidin-3-yl}acetonitrile] | 6.5
N#CCC1(n2cc(-c3ccnc4[nH]ccc34)cn2)CN(C2CCN(C(=O)Nc3ccc(F)cc3Cl)CC2)C1 [Example 305, N-(2-chloro-4-fluorophenyl)-4-{3-(cyanomethyl)-3-[4-(1H-pyrrolo[2,3-b]pyridin-4-yl)-1H-pyrazol-1-yl]azetidin-1-yl}piperidine-1-carboxamide] | 16.0
COc1ncccc1NC(=O)N1CCC(N2CC(CC#N)(n3cc(-c4ccnc5[nH]ccc45)cn3)C2)CC1 [Example 306, 4-{3-(cyanomethyl)-3-[4-(1H-pyrrolo[2,3-b]pyridin-4-yl)-1H-pyrazol-1-yl]azetidin-1-yl}-N-(2-methoxypyridin-3-yl)piperidine-1-carboxamide] | 3.5
